Reference: patent publication EP1149106B1, “4,5-AZOLO-OXINDOLES” (F. HOFFMANN-LA ROCHE AG, priority 1998, dated 2000)

Columns and labels:
[1] = system: estrogen receptor negative epithelial breast carcinoma line (MDA-MB-435); assay: Cell-based antiproliferative assay (MTT), MDA-MB-435; details: Homo sapiens, MDA-MB-435, 120 h, 2000 cells per well, 5 days post addition of test compound, read-out: MDA-MB435 IC50
Method: The estrogen receptor negative epithelial breast carcinoma line (MDA-MB-435) was purchased from American Type Cell Culture Collection (ATCC; Rockville, MD) and was grown in the medium recommended by ATCC. For analysis of the effect of the test compounds on growth of these cells, the cells were plated at 2000 cells per well in a 96-well tissue culture plate, and were incubated overnight at 37°C with 5% CO2. The next day, the test compounds were dissolved in 100% dimethyl sulfoxide (DMSO) to yield a 10 mM stock solution. Each compound was diluted with sterile medium to 1 mM in a sufficient quantity to yield a final concentration of 120 µM. The compounds were then serially diluted in medium with 1.2% DMSO. […] The plates were returned to the incubator, and 5 days post addition of test compound, were analyzed as described below.
3-(4,5-Dimethylthiazole-2-yl)-2,5-diphenyl-2H-tetrazolium bromide (thiazolyl blue; MTT) was added to each well to yield a final concentration of 1 mg/ml. […] Absorbencies were read in a microtiter plate reader (Molecular Dynamics) at a wavelength of 570 nm with a 650 nm reference. Percent inhibition was calculated by subtracting the absorbance of the blank (no cell) wells from all wells, then subtracting the division of the average absorbance of each test duplicate by the average of the controls from 1.00. […]

[2] = system: colon carcinoma line SW480; assay: Cell-based antiproliferative assay (MTT), SW480; details: Homo sapiens, SW480, 96 h, 1000 cells per well, 4 days post addition of test compound
[3] = molecular target: T1, Cyclin E/CDK2 (Homo sapiens, UniProt P24941); assay: CDK2 FlashPlate Assay (Rb phosphorylation, 33P-ATP); format: biochemical; details: for IC50: recombinant human Cyclin E/CDK2, Rb substrate, 25 minutes at room temperature
T1 construct: made in house; host or cells: insect cells
Method: To determine inhibition of CDK2 activity, purified recombinant retinoblastoma (Rb) protein was coated on 96 well FlashPlates (New England Nuclear, Boston, MA). Rb is a natural substrate for phosphorylation by CDK2 (Herwig and Strauss Eurr. J. Biochem., Vol. 246 (1997) pp. 581-601 and references therein). Recombinant active human Cyclin E/CDK2 complexes were partially purified from extracts of insect cells. The active Cyclin E/CDK2 was added to the Rb-coated FlashPlates along with ^33P-ATP and dilutions of test compounds. Plates were incubated for 25 minutes at room temperature with shaking, then washed and counted in the Topcount scintillation counter (Packard Instrument Co., Downers Grove, IL). Dilutions of test compounds were tested in duplicate in each assay. The percent inhibition of Rb phosphorylation, which is a measure of the inhibition of CDK2 activity, was determined according to the following formula: [formula] where "test compound" refers to the average counts per minute of the test duplicates, "nonspecific" refers to the average counts per minute when no Cyclin E/CDK2 was added, and "total" refers to the average counts per minute when no compound was added.

Q: How did the IC50 [1] turn out when `COc1cc[nH]c1/C=C1\C(=O)Nc2ccc3[nH]c(C)nc3c21` [P, (Z)-8-[(3-Methoxy-1H-pyrrol-2-yl)methylene]-2-methyl-3,6,7,8-tetrahydro-pyrrolo-[3,2-e]benzimidazol-7-one] was run?
A: Its IC50 is less than 3.5 µM.

Q: And the IC50 [2]?
A: Its IC50 is less than 1 µM.

Q: And the IC50 [3]?
A: The IC50 was less than 3.5 µM.

Q: For `COc1cc[nH]c1/C=C1\C(=O)Nc2ccc3[nH]c(NCC4CCCO4)nc3c21` (stereo not shown) [KK, (Z)-8-[(3-Methoxy-1H-pyrrol-2-yl)methylene]-2-[N-[(2-tetrahydrofuranyl)methyl]-amino]-3,6,7,8-tetrahydro-pyrrolo[3,2-e] benzimidazol-7-one], which IC50 [3] is on record?
A: Its IC50 is less than 3.5 µM.

Q: With `COc1ccc(CCNc2nc3c4c(ccc3[nH]2)NC(=O)/C4=C\c2[nH]ccc2OC)cc1OC` [GG, (Z)-2-[N-[2-(3,4-Dimethoxyphenyl)ethyl]amino]-8-[(3-methoxy-1H-pyrrol-2-yl)methylene]-3,6,7,8-tetrahydro-pyrrolo[3,2-e]-benzimidazol-7-one] as the molecule, how does the inhibition at 0.5 µM ([3]; Concentration 0.5 µM) read?
A: Its inhibition at 0.5 µM is less than 50%.

Q: With `COc1cc[nH]c1/C=C1\C(=O)Nc2ccc3[nH]c(-c4ccccc4O)nc3c21` [S, (Z)-2-(2-Hydroxyphenyl)-8-[(3-methoxy-1H-pyrrol-2-yl)methylene]-3,6,7,8-tetrahydro-pyrrolo[3;2-e]benzimidazol-7-one] as the molecule, how does the IC50 [3] read?
A: The IC50 was less than 3.5 µM.

Q: Which IC50 [3] does the source give for `Cc1nc[nH]c1/C=C1\C(=O)Nc2ccc([N+](=O)[O-])c(N)c21` [QQ, (Z)-4-Amino-1,3-dihydro-3-[(4-methyl-1H-imidazol-5-yl)methylene]-5-nitro-2H-indol-2-one] here?
A: The IC50 was less than 3.5 µM.
